Among the data in PubChem BioAssay AID651569 (Sanford-Burnham Center for Chemical Genomics, 2012) are IC50 values, retold here.

The structures appear in SMILES notation. Active and inactive are the calls of the source. No rule for the calls is given here. Bounds are passed on as bounds.

This assay deals with luminescent cytotoxicity (cell viability) counter-screen. As to the kind of experiment: cytotoxicity of Gli-SUFU antagonist hits, dose response, cytotoxicity control for Gli-SUFU antagonist project, cell-based, luminescence, uHTS hits (AID 651569).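 Also: compound exposure lasted overnight before the viability readout.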
On to `O=C(NCCc1cccc(Cl)c1)c1ccc(OC2CCN(Cc3ccccn3)CC2)cc1`, for which the IC50 is > 20 µM (inactive).

Take `COc1ccccc1CCNC(=O)C(=O)NCCC1CCCCN1S(=O)(=O)c1cccs1` (stereo unspecified): the IC50 was 13.1 µM.

`O=C(N[C@@H]1C/C=C\C[C@@H](CC(=O)N(CCO)Cc2ccccc2)C(=O)NCCOC1=O)OCC1c2ccccc2-c2ccccc21`: the IC50 is > 20 µM (inactive).

For the molecule `CCCOc1ccccc1N/C(=N/c1nc(C)cc(C)n1)NC(=O)COc1ccc(OC)cc1`, the IC50 is > 20 µM (inactive).

As for `O=C(c1cc(COc2cccc3cnccc23)on1)N1CCCC(CCCO)C1` (stereo unspecified), the IC50 is > 20 µM (inactive).

`CN(C)CCn1c2ccccc2c2nc3ccc([N+](=O)[O-])cc3cc21`: the IC50 is > 20 µM (inactive).

`CCCc1nc(SCC(=O)Nc2nnc(CC)s2)c2c(=O)n(C)c(=O)n(C)c2n1`: the IC50 is > 20 µM (inactive).

On to `C/C(=N\Nc1ccc(Cl)nn1)c1ccccc1O`, for which the IC50 was > 20 µM (inactive).

For `Cc1ccc2c(c1)S/C(=C/c1ccc[n+](C)c1)N2CCO`, the IC50 is > 20 µM (inactive).

`C=CCNC(=S)/N=c1/ccccn1Cc1ccccc1`: the IC50 was > 20 µM (inactive).

As for `Cc1ccc(OCCOC(=O)c2cc(S(=O)(=O)N3CCCCC3)ccc2N2CCOCC2)cc1`, the IC50 was > 20 µM (inactive).

For the molecule `Cc1nc2ccccc2c2c1CC(C(C)(Cl)Br)O2` (stereo unspecified), the IC50 was > 20 µM (inactive).

`CC1Sc2n(c3ccccc3[n+]2C)N=C1c1ccccc1` (stereo unspecified): the IC50 was > 20 µM (inactive).

Regarding `CC(=O)Nc1ccc(S(=O)(=O)N(Cc2ccccc2)C(C)C)cc1`, the IC50 is > 20 µM (inactive).

`CC(=O)c1c(C)[nH]c(C(=O)OCC(=O)Nc2sc3c(c2C#N)CCCC3)c1C`: the IC50 is > 20 µM (inactive).

`CC(=O)c1cn(Cc2ccccc2F)c2ccccc12`: the IC50 is > 20 µM (inactive).

Take `Nc1nc2ccccc2n1/N=C/c1ccc([N+](=O)[O-])s1`: the IC50 is > 20 µM (inactive).

`CNc1ccccc1C(C)(C)c1cc(-c2cccc(Br)c2)no1`: the IC50 was > 20 µM (inactive).

In the case of `CN(Cc1ccc(OCC(O)CN2CCCCC2)cc1)Cc1ccnc2ccccc12` (stereo unspecified), the IC50 is > 20 µM (inactive).

As to `Cc1cccc(CCN2C(N(C)C)=NC[C@@H]2CC(C)C)c1`, the IC50 is 18.2 µM.

On to `COc1ccc(CNc2ncnc3c2[nH]c2ccccc23)cc1`, for which the IC50 was > 20 µM (inactive).

Take `COc1ccc(-n2cc(-c3ccc(OC(F)F)cc3)[n+]3c2CCCCC3)cc1`: the IC50 is > 20 µM (inactive).

With `C(#Cc1ccccc1)C[N+]1(CC#Cc2ccccc2)CCCC1`, the IC50 is > 20 µM (inactive).

`O=C(c1cc2nc(-c3ccc(F)cc3)cc(C(F)(F)F)n2n1)N1CCCCC1c1cccnc1` (stereo unspecified): the IC50 was > 20 µM (inactive).

On to `O=C(Nc1cccc(C(F)(F)F)c1)C1CCN(S(=O)(=O)c2ccc(N3CCCC3=O)cc2)CC1`, for which the IC50 was > 20 µM (inactive).

With `O=C(Nc1ccc(C(F)(F)F)cc1)C1CCN(S(=O)(=O)c2ccc(N3CCCC3=O)cc2)CC1`, the IC50 is > 20 µM (inactive).

In the case of `CC(C)C(=O)NC(=S)/C=C1/N(C)c2ccccc2C1(C)C`, the IC50 is > 20 µM (inactive).

As to `CCOc1ccc(-c2cc(C)[n+](CCO)c(-c3ccc(OCC)cc3)c2)cc1`, the IC50 is > 20 µM (inactive).

For the molecule `CN1/C(=C\C=N\NC(=O)c2ccc(O)cc2)C(C)(C)c2ccccc21`, the IC50 was 4.84 µM.

For the molecule `COc1ccc(-c2c(C#N)c(N)nc3c2CCc2ccccc2-3)cc1OC`, the IC50 was 8.1 µM.

Take `Brc1ccc(-c2c[n+]3c(n2-c2ccccc2)SCC3)cc1`: the IC50 was > 20 µM (inactive).

Regarding `Cc1ccc(Cl)cc1N1CCN(C(=O)CSc2nnc3n2C(C)(C)Cc2ccccc2-3)CC1`, the IC50 is > 20 µM (inactive).

As for `CCOC(=O)CC1CCCCN1C(=O)c1cc(COc2cccc3cnccc23)on1` (stereo unspecified), the IC50 was > 20 µM (inactive).

With `COc1ccc(CNc2cc(C)nc3ncnn23)c(OC)c1`, the IC50 was > 20 µM (inactive).

Take `CCCCCCC[N+](CC)(CC)CCCCc1ccc(Cl)cc1`: the IC50 is > 20 µM (inactive).

For `CCCCNc1c(-c2ccc(OC)c(Sc3ccc(OC)cc3)c2)nc2ccccn12`, the IC50 was 12.9 µM.

Consider `C[N+]1(CC(=O)OC2CCCCCCCCCCC2)CCCC1`, for which the IC50 is > 20 µM (inactive).

In the case of `O=C(Cn1c(-c2ccccc2)c[n+]2ccsc12)c1ccc(Br)cc1`, the IC50 was > 20 µM (inactive).

`Cc1sc2ncnc(N3CCN(S(=O)(=O)c4ccc(C(C)(C)C)cc4)CC3)c2c1C`: the IC50 is > 20 µM (inactive).

For `O=S(=O)(NCc1ccncc1)c1ccc(S(=O)(=O)NCC2CCCO2)cc1` (stereo unspecified), the IC50 was > 20 µM (inactive).

On to `Cc1ccc2c(c1)c(C)cc[n+]2Cc1ccccc1`, for which the IC50 is > 20 µM (inactive).

For the molecule `FC(F)(F)c1ccc(N2CCN(c3cc(-c4ccccc4)nc4ncnn34)CC2)nc1`, the IC50 was > 20 µM (inactive).

In the case of `COc1ccc(CN2CCC(C(=O)Nc3ccc(Oc4cccnc4)cc3)CC2)c(C)c1C`, the IC50 was 19.5 µM.

As to `CCOC(=O)C1CCCN(S(=O)(=O)c2ccc(S(=O)(=O)N(CC)CC)cc2)C1` (stereo unspecified), the IC50 is > 20 µM (inactive).

For `Cc1cc(-c2ccccc2)cc(-c2ccccc2)[n+]1C`, the IC50 is > 20 µM (inactive).

On to `CC(C)C(=O)N1CCN(c2ccccc2NC(=O)COc2ccccc2)CC1`, for which the IC50 was > 20 µM (inactive).

As to `Cc1ccc(C)c(-c2csc(NC(=O)C3=COCCO3)n2)c1`, the IC50 was > 20 µM (inactive).

With `COC(=O)C1=C(c2cc3ccccc3o2)C[C@@H]2CC[C@H]1N2C(=O)N1CCC(C)CC1`, the IC50 is > 20 µM (inactive).

With `COc1nnc(-c2ccc(N3CCCCC3)c(N)c2)c2ccccc12`, the IC50 is > 20 µM (inactive).

As for `O=C(N[C@H]1C/C=C\C[C@@H](CC(=O)N(CCO)Cc2ccccc2)C(=O)N[C@H](Cc2c[nH]c3ccccc23)COC1=O)OCC1c2ccccc2-c2ccccc21`, the IC50 is > 20 µM (inactive).

As to `Fc1ccc(-n2nnnc2-c2cnc(-c3cccs3)nc2C(F)(F)F)cc1`, the IC50 was 17 µM.

As for `COc1ccccc1-n1c(-c2ccccc2)c[n+]2c1CCc1ccccc1-2`, the IC50 was > 20 µM (inactive).

With `CC1CCN(c2c(NCc3ccc(C(=O)N4c5ccccc5CC4C)cc3)c(=O)c2=O)CC1` (stereo unspecified), the IC50 is > 20 µM (inactive).

With `O=C(COC(=O)c1ccc2[nH]c3c(c2c1)CCCC3)Nc1ccccc1Cl`, the IC50 is > 20 µM (inactive).

Take `Cc1ccc(S(=O)(=O)N2CCN(C(=O)c3ccc(S(=O)(=O)N4CCCC4)cc3)CC2)cc1`: the IC50 was > 20 µM (inactive).

Turning to `CC(CC(=O)N1CCN(c2cccc(Cl)c2)CC1)S(=O)(=O)c1ccc2c(c1)NC(=O)CO2` (stereo unspecified), the IC50 was > 20 µM (inactive).

Turning to `CCc1nc(N)nc(N)c1-c1ccc(N(C)Cc2ccccc2)c([N+](=O)[O-])c1`, the IC50 is 18.4 µM.

`C=CCOC(=O)c1[nH]c2c(c1C)C(=O)CC(c1cc(OC)c(OC)c(OC)c1)C2` (stereo unspecified): the IC50 is > 20 µM (inactive).

For the molecule `O=C(c1cnc(N2CCN(c3ccccn3)CC2)c2ccccc12)N1CCN(c2cccc(Cl)c2)CC1`, the IC50 is > 20 µM (inactive).

Regarding `c1ccc(-c2c[n+]3c(n2-c2ccccc2)SCC3)cc1`, the IC50 is > 20 µM (inactive).

Regarding `CCCCn1c(SCc2c(C)noc2C)nc2cc(S(N)(=O)=O)ccc21`, the IC50 was > 20 µM (inactive).

On to `CC(C)(C)C1CCC(OC(=O)C[N+]2(C)CCCCC2)CC1` (stereo unspecified), for which the IC50 is > 20 µM (inactive).

Consider `C=CCOc1nc2c(c(=O)n(C)c(=O)n2C)n1Cc1ccc(Cl)cc1Cl`, for which the IC50 was > 20 µM (inactive).

Turning to `COc1ccc(CC(=O)Nc2cccc(S(=O)(=O)N3CCCCCC3)c2)cc1OC`, the IC50 was > 20 µM (inactive).

Regarding `N=c1c2c(n(Cc3ccc(F)cc3)c3c1CCC3)CCCC2`, the IC50 is > 20 µM (inactive).

For the molecule `O=C(NC(c1cccnc1)C(F)(F)F)c1cc(COc2ccc3c(c2)CCCC3)on1` (stereo unspecified), the IC50 is > 20 µM (inactive).

Take `Cc1ccc(O)c(NC(=O)COc2cc(C)ccc2C)c1`: the IC50 was > 20 µM (inactive).

In the case of `Cc1ccc(C2=C(CC(=O)O)C(=O)CC2)cc1`, the IC50 is > 20 µM (inactive).

Turning to `Cc1nc2ccccc2n1CC(=O)NC(C)C1CC2CCC1C2` (stereo unspecified), the IC50 is > 20 µM (inactive).

As for `Cc1cc(/C=N/n2cnnc2)c(C)n1-c1ccc(OCc2ccccc2F)cc1`, the IC50 is 16.3 µM.

`O=C(NCCNc1ccnc2cc(Cl)ccc12)c1ccccc1F`: the IC50 is > 20 µM (inactive).

Turning to `CC(C)n1c(-c2ccco2)csc1=Nc1cccnc1`, the IC50 is > 20 µM (inactive).

For `C#CC[N+](C)(C)CCCCCCCCCCCC`, the IC50 is > 20 µM (inactive).

With `CC1Cc2cc(S(=O)(=O)N3CCC(C(=O)N4CCN(c5ccccc5F)CC4)CC3)ccc2N1C(=O)C1CC1` (stereo unspecified), the IC50 was 7.01 µM.

For the molecule `COc1ccc(CN(C)C(=O)c2cccc(NC(=O)CC3SC(N4CCCCC4)=NC3=O)c2)c(OC)c1` (stereo unspecified), the IC50 was > 20 µM (inactive).

Take `CC1CN(S(=O)(=O)c2ccc(C(=O)Nc3nc(-c4cc5ccccc5o4)cs3)cc2)CC(C)O1` (stereo unspecified): the IC50 is > 20 µM (inactive).

In the case of `Cc1nn(C)c(C)c1/C=C/C(=O)c1ccc(Cl)cc1Cl`, the IC50 was > 20 µM (inactive).

On to `Cc1cc(=O)[nH]c(SCC(=O)/C=C2\N(C)c3ccccc3C2(C)C)n1`, for which the IC50 is > 20 µM (inactive).

`C/C(=N\NC(=O)C(=O)Nc1ccc(C)c(Cl)c1)c1ccncc1`: the IC50 is > 20 µM (inactive).

Consider `O=C(c1ccc(C(F)(F)F)cc1)C1CCCN(Cc2ccncc2)C1` (stereo unspecified), for which the IC50 was 18.2 µM.

Take `CCCCCCn1c(=O)c(C(=O)Nc2cnccn2)c(O)c2ccccc21`: the IC50 was > 20 µM (inactive).

Consider `Cc1cc(C)nc(/N=C(\N)Nc2ccccc2-c2ccccc2)n1`, for which the IC50 was 18.4 µM.

On to `Cc1sc2ncnc(NCC(O)c3ccc([N+](=O)[O-])cc3)c2c1C` (stereo unspecified), for which the IC50 is > 20 µM (inactive).

Consider `COCCNC(=O)CSCc1nc(-c2ccc(SC)cc2)oc1C`, for which the IC50 was > 20 µM (inactive).

Turning to `FC(F)Oc1ccc(-n2cc(-c3ccccc3)[n+]3c2CCCCC3)cc1`, the IC50 is > 20 µM (inactive).

For the molecule `COc1ccc(C(C(=O)NC2CCCCC2)N(C(=O)CCl)c2ccc(Cl)cc2)cc1` (stereo unspecified), the IC50 was 4.86 µM.
